Earlier results on two compounds are cited in US20050260283A1, “Composition for prevention and treatment of colon adenomas” (Medical Futures Inc., priority 2004, published 2005).

The subject of one series is colorectal adenomas. To be noted: calcium supplementation; volunteers with a history of colorectal adenomas (Baron, 1999).
Another series relates to colorectal cancer. The note with it: regular aspirin use; epidemiological studies (Krishnan, 1997).

With `O=C([O-])[O-].[Ca+2]` [calcium carbonate], the “risk of recurrent colorectal adenomas” value with colorectal adenomas was “moderate but significant reduction”. Turning to `CC(=O)Oc1ccccc1C(=O)O` [aspirin], the “reduction in the incidence of colorectal cancer” value in the series with colorectal cancer was 40-50%.
